Results as given in patent US8242117B2, “5-membered heterocycle-based p38 kinase inhibitors” (Novartis AG, priority 2003, dated 2012).

Each compound was assayed against T1, p38α kinase (Homo sapiens, UniProt Q16539) (assay: p38α assay (ADP release coupled to NADH oxidation)). Conditions: 60 min preincubation, 0.15 mM ATP, 20 nM p38α kinase.
T1 construct: purchased Upstate
Assay type: biochemical
Method: cDNAs of human p38α and β were cloned by PCR. The α and β cDNAs were subcloned into DEST2 plasmid (Gateway, InVitrogen). His6-p38 fusion protein was expressed in E. coli and purified from bacterial lysates by affinity chromatography using Ni^+2-NTA-agarose. His6-p38 protein was activated by incubating with constitutively active MKK6. Active p38 was separated from MKK6 by affinity chromatography. Constitutively active MKK6 was generated in a manner similar to Raingeaud et al. [Mol. Cell. Biol., 1247-1255 (1996)].
The p38α assay employed is based on measurement of ADP released in the reaction of interest through NADH oxidation obtained by coupling with pyruvate kinase and lactate dehydrogenase reactions. The assays were performed in 384-well UV-plates. The final volume was 25 μL prepared from the addition of 2.5 μL compound dissolved in 10% DMSO, 17.5 μL of assay buffer and 5 μL of ATP. Assay buffer contains the following reagents to give final concentration in the assay: 25 mM HEPES, 20 mM 2-glycerophosphate, pH 7.6, 10 mM MgCl2, 0.1 mM sodium orthovanadate, 0.5 mM phosphoenolpyruvate, 0.12 mM NADH, 3.1 mg/ml LDH, 6.67 mg/ml pyruvate kinase, 0.25 mM peptide substrate, 2 mM DTT, 0.005% Tween 80 and 20 nM p38α kinase from Upstate. Test compounds are preincubated zith p38α kinase for 60 min and the reaction started by addition of ATP to 0.15 mM final concentration. Reaction rates were measured at 340 nm using SpectraMax plate-reading spectrophotometer for 10 min at 37° C. Inhibition data were analyzed by non-linear least-squares regression using SigmaPlot.

T1 sequence (Q16539 whole entry): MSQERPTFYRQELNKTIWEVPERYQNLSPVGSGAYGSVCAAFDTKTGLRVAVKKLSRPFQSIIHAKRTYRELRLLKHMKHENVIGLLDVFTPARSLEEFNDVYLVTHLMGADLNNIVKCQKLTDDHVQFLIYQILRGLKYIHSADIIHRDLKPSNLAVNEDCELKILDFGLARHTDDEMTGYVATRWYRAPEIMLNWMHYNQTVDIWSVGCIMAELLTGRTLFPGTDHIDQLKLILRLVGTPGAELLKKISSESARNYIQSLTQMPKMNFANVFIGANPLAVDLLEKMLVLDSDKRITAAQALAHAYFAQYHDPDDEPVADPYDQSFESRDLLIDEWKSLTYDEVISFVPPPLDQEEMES

| IC50 [nM] | SMILES |
| --- | --- |
| < 1000 | CONC(=O)c1ccc(C)c(-n2ncc(C(=O)c3cccc(I)c3)c2N)c1 [Example 1, 3-[5-Amino-4-(3-iodo-benzoyl)-pyrazol-1-yl]-N-methoxy-4-methyl-benzamide] |
| < 1000 | CONC(=O)c1ccc(C)c(-n2ncc(C(=O)c3ccccc3)c2N)c1 [Example 2, 3-(5-Amino-4-benzoyl-pyrazol-1-yl)-N-methoxy-4-methyl-benzamide] |
| 1000 to 10000 | Cc1ccc(C(=O)O)cc1-n1ncc(C(=O)c2ccccc2)c1N [Example 3, 3-(5-amino-4-benzoyl-pyrazol-1-yl)-4-methyl-benzoic acid] |
| < 1000 | Cc1ccc(C(=O)NC2CC2)cc1-n1ncc(C(=O)c2ccccc2)c1N [Example 4, 3-(5-amino-4-benzoyl-pyrazol-1-yl)-N-cyclopropyl-4-methyl-benzamide] |
| 1000 to 10000 | Cc1ccc(C(=O)O)cc1-n1ncc(C(=O)c2cccc(I)c2)c1N [Example 5, 3-[5-amino-4-(3-iodo-benzoyl)-pyrazol-1-yl]-4-methyl-benzoic acid] |
| < 1000 | Cc1ccc(C(=O)NC2CC2)cc1-n1ncc(C(=O)c2cccc(I)c2)c1N [Example 6, 3-[5-amino-4-(3-iodo-benzoyl)-pyrazol-1-yl]-N-cyclopropyl-4-methyl-benzamide] |
| < 1000 | Cc1ccc(-c2nnc[nH]2)cc1-n1ncc(C(=O)c2ccccc2)c1N [Example 7, {5-amino-1-[2-methyl-5-(4H-[1,2,4]triazol-3-yl)-phenyl]-1H-pyrazol-4-yl}-phenyl-methanone] |
| < 1000 | Cc1ccc(C(=O)NC2CC2)cc1-n1ncc(C(=O)c2cccc(C3OCCO3)c2)c1N [Example 8, 3-[5-amino-4-(3-[1,3]dioxolan-2-yl-benzoyl)-pyrazol-1-yl]-N-cyclopropyl-4-methyl-benzamide] |
| < 1000 | Cc1ccc(C(=O)NC2CC2)cc1-n1ncc(C(=O)c2cccc(C=O)c2)c1N [Example 9, 3-[5-amino-4-(3-formyl-benzoyl)-pyrazol-1-yl]-N-cyclopropyl-4-methyl-benzamide] |
| < 1000 | Cc1ccc(C(=O)NC2CC2)cc1-n1ncc(C(=O)c2cccc(CO)c2)c1N [Example 10, 3-[5-amino-4-(3-hydroxymethyl-benzoyl)-pyrazol-1-yl]-N-cyclopropyl-4-methyl-benzamide] |
| < 1000 | Cc1ccc(C(=O)NC2CC2)cc1-n1cnc(C(=O)C2CCCCC2)c1N [Example 18, 3-(5-Amino-4-cyclohexanecarbonyl-imidazol-1-yl)-N-cyclopropyl-4-methyl-benzamide] |
| < 1000 | Cc1ccc(C(=O)NC2CC2)cc1-n1cnc(C(=O)C2CCOCC2)c1N [Example 29, 3-[5-Amino-4-(tetrahydro-pyran-4-carbonyl)-imidazol-1-yl]-N-cyclopropyl-4-methyl-benzamide] |
| < 1000 | COc1nn(-c2cc(C(=O)NC3CC3)ccc2C)c(N)c1C(=O)c1ccccc1 [Example 30, 3-(5-amino-4-benzoyl-3-methoxy-pyrazol-1-yl)-N-cyclopropyl-4-methyl-benzamide] |
| < 1000 | Cc1ccc(C(=O)NC2CC2)cc1-n1nc(OCCOCc2ccccc2)c(C(=O)c2ccccc2)c1N [Example 33, 3-[5-amino-4-benzoyl-3-(2-benzyloxy-ethoxy)-pyrazol-1-yl]-N-cyclopropyl-4-methyl-benzamide] |
| < 1000 | Cc1ccc(C(=O)NC2CC2)cc1-n1nc(OC2CCN(C(=O)OC(C)(C)C)CC2)c(C(=O)c2ccccc2)c1N [Example 34, 4-[5-amino-4-benzoyl-1-(5-cyclopropylcarbamoyl-2-methyl-phenyl)-1H-pyrazol-3-yloxy]-piperidine-1-carboxylic acid tert-butyl ester] |
| < 1000 | CCOC(=O)c1cnn(-c2cc(C(=O)NC3CC3)ccc2C)c1N [Example 48, 5-Amino-1-(5-cyclopropylcarbamoyl-2-methyl-phenyl)-1H-pyrazole-4-carboxylic acid ethyl ester] |
| < 1000 | CCOC(=O)c1c(C)nn(-c2cc(C(=O)NC3CC3)ccc2C)c1N [Example 49, 5-Amino-1-(5-cyclopropylcarbamoyl-2-methyl-phenyl)-3-methyl-1H-pyrazole-4-carboxylic acid ethyl ester] |
| < 1000 | CCOC(=O)c1c(OCC(=O)NCc2cccc(Cl)c2)nn(-c2cc(C(=O)NC3CC3)ccc2C)c1N [Example 50, 5-Amino-3-[(3-chloro-benzylcarbamoyl)-methoxy]-1-(5-cyclopropylcarbamoyl-2-methyl-phenyl)-1H-pyrazole-4-carboxylic acid ethyl ester] |
| < 1000 | Cc1ccc(C(=O)NC2CC2)cc1-n1ncc(C(=O)c2cccc(C#N)c2)c1N [Example 52, 3-[5-Amino-4-(3-cyanobenzoyl)-pyrazol-1-yl]-N-cyclopropyl-4-methylbenzamide] |
| < 1000 | Cc1ccc(C(=O)NC2CC2)cc1-n1ncc(C(=O)c2cccc(-c3nnco3)c2)c1N [Example 53, 3-[5-Amino-4-(3-[1,3,4]oxadiazol-2-yl-benzoyl)-pyrazol-1-yl]-N-cyclopropyl-4-methylbenzamide] |
| < 1000 | Cc1ccc(C(=O)NC2CC2)cc1-n1cnc(C(=O)c2ccccn2)c1N [Example 76, 3-[5-Amino-4-(pyridine-2-carbonyl)-imidazol-1-yl]-N-cyclopropyl-4-methyl-benzamide] |
| < 1000 | Cc1ccc(C(=O)NC2CC2)cc1-n1cnc(C(=O)c2ccc3c(c2)OCO3)c1N [Example 87, 3-[5-Amino-4-(benzo[1,3]dioxole-5-carbonyl)-imidazol-1-yl]-N-cyclopropyl-4-methyl-benzamide] |
| < 1000 | Cc1ccc(C(=O)NC2CC2)cc1-n1ncc(C(=O)NC2CCCCC2C)c1N (stereo not shown) [Example 128, 5-Amino-1-(5-cyclopropylcarbamoyl-2-methyl-phenyl)-1H-pyrazole-4-carboxylic acid (2-methyl-cyclohexyl)-amide] |
| < 1000 | Cc1ccc(C(=O)NC2CC2)cc1-n1ncc(C(=O)NC2CCc3ccccc32)c1N (stereo not shown) [Example 135, 5-Amino-1-(5-cyclopropylcarbamoyl-2-methyl-phenyl)-1H-pyrazole-4-carboxylic acid indan-1-ylamide] |
| < 1000 | Cc1ccc(C(=O)NC2CC2)cc1-n1ncc(C(=O)c2cccc(OCC(O)CO)c2)c1N (stereo not shown) [Example 171, 3-{5-Amino-4-[3-(2,3-dihydroxy-propoxy)-benzoyl]-pyrazol-1-yl}-N-cyclopropyl-4-methylbenzamide] |
